Laboratory results published in PMC5874177 (Journal of the American Chemical Society, 2018).
Like-named read-outs stand apart in the source and are kept apart here.

Tests used:
[1] = molecular target: T1, tryptophan 2,3-dioxygenase (TDO) (Homo sapiens, UniProt P48775); assay type: biochemical
[2] = molecular target: T1, tryptophan 2,3-dioxygenase (TDO); assay type: biochemical; remark: listed apart in the source

T1 sequence (P48775 whole entry): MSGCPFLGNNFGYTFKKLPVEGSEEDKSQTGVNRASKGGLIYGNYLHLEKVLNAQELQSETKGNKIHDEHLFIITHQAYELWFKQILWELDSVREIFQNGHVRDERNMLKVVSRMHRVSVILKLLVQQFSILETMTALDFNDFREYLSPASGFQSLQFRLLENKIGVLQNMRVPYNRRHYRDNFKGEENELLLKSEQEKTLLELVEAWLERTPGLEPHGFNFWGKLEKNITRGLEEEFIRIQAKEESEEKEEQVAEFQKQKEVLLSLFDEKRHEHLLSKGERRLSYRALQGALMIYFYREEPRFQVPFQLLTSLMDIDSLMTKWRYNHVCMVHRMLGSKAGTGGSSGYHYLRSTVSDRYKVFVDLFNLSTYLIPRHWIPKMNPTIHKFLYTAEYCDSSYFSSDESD

| SMILES | Ki [1] | Ki [2] |
| --- | --- | --- |
| CC(Cc1c[nH]c2ccccc12)C(=O)O (centres unmarked) [compound 1, probe 1] | 320 ± 43 µM | – |
| O=C(O)C(O)Cc1c[nH]c2ccccc12 (centres unmarked) [compound 2, probe 2] | – | 444 ± 32 µM |
